{"source": "ChEMBL document CHEMBL1150599", "about": "“Spiroidesin, a novel lipopeptide from the cyanobacterium Anabaena spiroides that inhibits cell growth of the cyanobacterium Microcystis aeruginosa” (J Nat Prod, 2002)", "key": {"Microcystis aeruginosa": {"tested_on": "Microcystis aeruginosa", "experiment": "Growth inhibition of Microcystis aeruginosa NIES-88 after 5 days", "assay_type": "functional, organism-based", "conditions": "NIES-88, 120 h"}, "[1]": {"experiment": "Inhibition of alpha-chymotrypsin"}}}
{"smiles": "CCCCCC(=O)N[C@H](CCc1ccc(O)cc1)C(=O)N[C@@H](CCc1ccc(O)cc1)C(=O)N[C@H](Cc1ccccc1)C(=O)O", "note": "[SPIROIDESIN]", "values": [{"measurement": "IC50", "setting": "Microcystis aeruginosa", "value": 1.6, "unit": "µM"}, {"measurement": "IC50", "setting": "[1]", "value": 10, "unit": "µM"}]}
